In patent US7098334B2 (Industrial Research Limited, priority 2002, dated 2006):
Where two headings read alike, the source gives them in different places.

Experiments:
[1] = biological target: T1, human MTAP (Homo sapiens, UniProt Q13126); assay: Enzyme inhibition assay, MTAP (slow-onset inhibition constants); assay type: biochemical
T1 construct: inferred from pQE32 vector and Ni-NTA purification) (N); made in house; host or cells: E. coli
T1 sequence (Q13126 1-283): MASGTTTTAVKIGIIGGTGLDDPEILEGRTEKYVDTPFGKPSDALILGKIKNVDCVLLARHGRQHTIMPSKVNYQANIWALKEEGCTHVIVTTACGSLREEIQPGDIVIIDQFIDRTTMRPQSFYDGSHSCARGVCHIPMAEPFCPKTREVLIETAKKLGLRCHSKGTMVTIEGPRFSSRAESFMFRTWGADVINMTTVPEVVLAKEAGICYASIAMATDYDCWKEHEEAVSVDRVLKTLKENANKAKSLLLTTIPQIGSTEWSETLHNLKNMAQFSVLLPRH
Protocol: Ki as shown in Tables 1 and 2 is the initial inhibition constant formed by the enzyme-inhibitor complex, and Ki* is the equilibrium dissociation constant for inhibition that is observed following a period of slow-onset, tight binding inhibition. Ki* is the biologically effective constant.
Enzyme assays were conducted to assess the effectiveness of selected compounds of the invention as inhibitors of MTAP and MTAN.
Enzymes.—The human MTAP protein was cloned into pQE32 expression vector and transformed into E. coli. Induction cultures containing 1 L (25 mg/L) and 50 μg/mL ampicillin were inoculated with 1 mL overnight grown starter-culture and incubated at 37° C. When the cultures reached an OD of ≈0.6 they were induced with 1.5 mM IPTG for 6 to 8 hours. Cells were harvested by centrifugation at 5000 rpm for 30 min, and subsequently resuspended in a buffer (20 mM imidazole, 300 mM NaCl, 0.2 mM phenylmethylsulfonyl fluoride (PMSF), 100 mM Tris, pH 8.0) containing a small amount of lysozyme to weaken the cell membrane. Cells were lysed with a French press. The insoluble material was removed by high-speed centrifugation. The cell extract was further clarified with 35% ammonium sulfate precipitation followed by high-speed centrifugation. The clarified cell extract was then applied to a 5 mL Ni-NTA column that had previously been equilibrated with the binding buffer. Further chromatographic steps were carried out by FPLC. The column was washed with 10 volumes of 50 mM imidazole, 300 mM NaCl, and 100 mM Tris, pH 8.0, and the protein was eluted with a buffer containing a 50–250 mM gradient of imidazole, 300 mM NaCl, 1 M Tris, pH 8.0. The purity of the protein was verified by running polyacrylamide gel followed by Coomassie staining. The protein was subsequently dialyzed in 50 mM NaCl, 2 mM dithiothreitol (DTT) and 50 mM Tris, pH 7.4, and was concentrated to 10 mg/mL. The purified protein was stored at −80° C. in 100 μL to 150 μL aliquots.
Inhibitors.—Inhibitor concentrations were determined by the UV absorbance spectrum using the published millimolar extinction coefficients for 9-dazadenine of 8.5 at 275 nm at pH 7.0.
Assays.—The direct spectrophotometric assay for the conversion of MTA into adenine was measured as the decrease in absorbance at 274 nm. At 274 nm, Δε between MTA and adenine is at a maximum and produces a spectral change of 1.6 absorbance units/cm/mM (DeWolf, W. E. Jr., Fullin, F. A., and Schramm, V. L. (1979) J. Biol. Chem. 254, 10868–10875)
This concentration corresponds to an OD of 0.7–1.1 at 274 nM. The formation of product was monitored as a decrease in absorbance at 274 nm. Conditions for Ki* determination used high concentrations of substrate. Two controls, one having no inhibitor and the other no enzyme were included in the experiment. The Ki values MTAP for the various compounds were calculated by fitting in the ratio of initial rates in the presence of inhibitor to without any inhibitor versus the inhibitor concentration, for the known Km and substrate concentration into the following expression.
Where Vo′ is the rate in the presence of inhibitor • Vo rate in the absence of inhibitor • [I] inhibitor concentration • And [S] is the substrate concentration
And the Ki* was calculated by fitting to the following expression
Where Vs′ is the steady-state rate following attainment of equilibrium in the presence inhibitor, and Vs is the steady-state rate in the control having no inhibitor. Both these equations are valid for competitive type inhibition.

[2] = tested on: Lewis lung carcinoma cells; assay: Radiation sensitizing effect on Lewis lung carcinoma cells; assay type: cell-based; settings: 5′-methylthio-ImmA at 2 μM; 10 Gy X-ray; cells counted by Trypan Blue after 48 hrs
Protocol: Lewis lung carcinoma cells (1×10^6) were plated and allowed to adhere overnight in 2 mL of DMEL medium substituted with 10% fetal bovine serum, 1% Pen-Strep, 2.5% Na-Pyruvate, 1% non-essential amino acids in 6 well plates. 50 μM MTA, 50 μM MTA+2 μM 5′-methylthio-ImmA or 2 μM 5′-methylthio-ImmA was then added in 1 mL of the same medium as indicated. Control wells were treated with medium without any additions. This treatment was allowed to continue for 6 hours. In each experiment one set of treated cells were subjected to 10 Gy of X-ray irradiation and a control set received no irridation. Both irradiated and unirradiated cells were then cultured for another 48 hours in the presence of MTA±5′-methylthio-ImmA. Manual counting of living and dead cells was done by Trypan Blue dye exclusion following 48 hrs of growth. (Approximate doubling time for Lewis Lung cells was 24 hours.)

Question: Which results are given for `CSC[C@H]1N[C@@H](c2c[nH]c3c(N)ncnc23)C(O)[C@H]1O` (some centres unmarked) [5′-methylthio-ImmA]?
Answer: Ki ([1]; MTA at 150 μM, Km=2.5 μM, read-out: Ki (FIG. 1, inhibition of MTAP at varying concentrations)): 0.107 nM; Ki* ([1]; MTAP, equilibrium dissociation constant after slow-onset, tight binding inhibition): in the pM range; Ki ([1]; MTAP, equilibrium dissociation constant after slow-onset, tight binding inhibition, read-out: Ki*): 0.09 ± 0.018 nM; Ki ([1]; MTAP, initial inhibition constant, read-out: Ki): 5 ± 0.5 nM; effect on cell growth and irradiation damage (FIG. 2) [2]: acts in a similar manner to 50 μM MTA
